# Measurements reported in patent publication US20050025758A1, “Method and compositions for treatment of insulin-dependant diabetes mellitus” (priority 1996, published 2005).
# Marks after values point to notes of the source that are not given here.
# Legend:
# [1] = system: splenocytes from aerosol-treated mice; assay: Proliferative responses of splenocytes from aerosol-treated mice ([3H]-thymidine uptake); assay type: cell-based, mouse
# Procedure: (§1) Spleen cells from individual normoglycemic mice were treated with a red cell lysis buffer, resuspended and incubated in quadruplicate at 2×10^5/200 μl of serum-free HL-1 medium (Hycor, Irvine, Calif.) containing […] 2-mercaptoethanol, in round-bottom wells with the indicated concentrations of antigen. After 3 days at 37° C. in 5% v/v CO2/air, 100 μl aliquots from each replicate supernatant were collected and stored at −70° C. for cytokine assays; the cells were then pulsed with 3H-thymidine, harvested 16 hours later and counted on a Topcount™ micro-scintillation counter (Packard, Meriden, Conn.). Insulin was recombinant human (Humulin R, Eli Lilly), is used for aerosol treatments. Insulin B-chain peptide corresponding to amino acids 9-23 of mouse insulin II (Peptide Express, Fort Collins, Colo.) was more than 90% pure by HPLC analysis. GAD65 was the recombinant human form expressed with a C-terminal hexahistidine in a baculovirus system and purified by Ni^2+ chelation) affinity chromatography. It was resolved as a single band in SDS-PAGE and was endotoxin-free by the quantitative Limulus lysate assay (BioWhittaker, Walkersville, Md.).
# Splenocytes from three mice per group were assayed in quadruplicate in HL-1 serum-free medium. Statistical comparisons (Mann-Whitney U tests) were between the twelve results for each group.
# [2] = humans, in the absence of absorption-promoting agents; cited from earlier work
# male NOD mice = assay: Adoptive transfer of diabetes (co-transfer of splenocytes); assay type: in vivo, mouse
# NOD female mice = assay: Intranasal insulin, proinsulin or proinsulin peptide 24-36, diabetes in NOD mice; assay type: in vivo, mouse; settings: for onset and incidence of diabetes: single intranasal dose at either 28 or 56 days of age, compared to control proteins ovalbumin or hen egg lysozyme; for effectiveness on a comparative dose basis: single intranasal dose, NOD female mice
# Procedure: Intranasal insulin (FIG. 1), proinsulin (FIG. 2) or proinsulin peptide 24-36 (FIG. 3). Commercially available insulin at 4 mg/ml, or proinsuling or proinsulin peptide 24-36 at 1-4 mg/ml in either insulin carrier solution or mouse tonicity—phosphate buffered saline, was applied in a volume of 10-20 μl to the nostrils of unanaesthetised, restrained NOD female mice at either 28 or 56 days of age.
# female NOD mice [3] = assay: Aerosol treatment and diabetes assessment (blood glucose >11 mM); assay type: in vivo, mouse; settings: for Diabetes frequency: 32 mice/group, aerosol 10 consecutive days then weekly from 28 days of age, at 105 days of age; for diabetes incidence at 156 days of age (median) / diabetes incidence at 240 days of age (median): aerosol for 3 or 10 consecutive days and then weekly from 28 days of age, five separate experiments; for diabetes incidence at 240 days of age (median): p=0.005; for incidence of diabetes by 240 days of age: single aerosol treatment at 28 days of age, female NOD mice
# Procedure: Semi-sealed boxes of eight female NOD mice were each aerosolized by connection to a standard, patient electric pump ([…] Aerosol MKV, Anaesthetic Supplies, Sydney, Australia) and Aeroflo nebulizer (Waite & Co., Sydney). Recombinant human insulin (Humulin R, Eli Lilly) or control ovalbumin protein, at 4 mg/ml, was delivered over 10 min. at an air flow rate of 6 litres/min. in a rated droplet size of <5.8 μm, to groups of 24-32 mice. All treatments were given between 0900 and 1100 hours. Protocols and mouse care were approved and supervised by the institutional Animal Ethic Committee. Retro-orbital venous blood was sampled at least every 28 days from 100 days of age and mice considered to be diabetic if their blood glucose, confirmed by a repeat test, was >11 mM. Glucose was measured with BM-Test Glycemic® strips and a Reflolux® II meter (Boehringer-Mannheim), on a drop of blood aspirated via a glass capillary tube from the retro-orbital venous plexus of unanesthetised mice. Aerosol human insulin or ovalbumin were administered in different schedules to female NOD mice from 28 days of age, the earliest time at which insulitis is detectable in the colony of mice, and their incidence of diabetes and severity of insulitis subsequently measured.
# [4] = system: at-risk first-degree relatives with immune markers of IDDM; settings: intranasal
# Source text: A clinical trial involves administration of intranasal insulin to at-risk but otherwise healthy first-degree relatives with immune markers of IDDM, including circulating antibodies and T cells reactive with islet autoantigens.
# This trial examines the effect of intranasal insulin on the surrogate immune markers of IDDM. The design is randomized, double-blind and placebo-controlled, with a crossover at six months. The placebo is the carrier solution normally used for insulin. […] Treatment is administered daily for 10 consecutive days, then for two consecutive days weekly. After six months, treatment is crossed over (from insulin to placebo, or vice versa).
# The administration dose of insulin per nostril is approximately 200 μl of the commercial 4 mg/ml solution. The placebo is the carrier solution in which the insulin is normally dissolved.
# [5] = system: splenocytes from aerosol-treated mice; assay: Cytokine secretion by splenocytes from aerosol-treated mice (ELISA); assay type: cell-based; settings: splenocytes with 40 μg/ml mouse insulin II B chain peptide (a 9-23), three days incubation; for IL-4 secretion / IL-10 secretion: lower limit of detection 16 pg/ml
# Procedure: as §1
# IL-2, -4, -10 and IFN-γ were measured by ELISAs with monoclonal antibody pairs (Pharmingen); the lower limits of detection were 62, 16, 16 and 55 pg/ml, respectively. TGF-β1 was measured with an ELISA kit (Promega) with a lower limit of detection of 16 pg/ml.
# Supernatants from replicate culture wells (Table 2) were sampled alter three days incubation and assayed for cytokines.
# female NOD mice [6] = assay: Histology: insulitis score and salivary gland infiltration; assay type: in vivo, mouse; settings: for Insulitis score: mean ± SD, scale 0-4, aerosol 10 consecutive days then weekly from 28 days of age, five non-diabetic mice per group at 105 days of age
# Procedure: Mice were killed by CO2 inhalation and the pancreas and salivary glands immediately removed into Bouin's fixative and embedded in paraffin. The insulitis score, a measure of the severity of islet infiltration was determined blindly by two independent investigators by grading and then averaging a minimum of 15 separate islets in serial 6 μm pancreas sections stained with haematoxylin and eosin. The grading scale was: 0, no filtration, islet intact; 1, <10 peri-islet lymphoid cells, islet intact; 2, 10-20 peri-and intra-islet lymphoid cells, islet intact; 3, >20 peri- and intra-islet lymphoid cells, <50% of islet replaced or destroyed; 4, massive lymphoid infiltrate with >50% of islet replaced or destroyed. Infiltration of the salivary glands was graded by the number of lymphoid cells in clusters: 0, no cells; 1, <10 cells; 2, 10-50 cells; 3, >50 cells.
# Mice (32/group) were given either aerosol insulin or ovalbumin for 10 consecutive days and then weekly from 28 days of age. At 105 days of age, five non-diabetic mice from each group were killed for pancreas histology. The insulitis score is expressed as mean ±SD. • 1.
# insulin antibodies = assay: Insulin antibodies in serum, 125I-insulin immunoprecipitation assay; assay type: in vivo, mouse; settings: sera n=12/group, aerosol-treated mice aged 70-105 days
# Procedure: To detect insulin antibodies, ^125lablelled human insulin (approx. 100,000 cpm: specific activity 120 μCi/μg) was incubated with or without excess unlabelled insulin (10 μg/ml) in phosphate-buffered saline containing a mixture of protease inhibitors and serial log dilutions of mouse serum, for 5 days at 4° C. Complexes were then precipitated with rabbit anti-mouse globulin anti-serum, washed and counted in a gamma counter. Positive control sera (guinea pig anti-porcine insulin serum, human IDDM sera) maximally precipitated 37-54% of the total radioactivity. Non-specific binding, in the presence of excess unlabelled insulin, was ≦3.3%.
# Insulin antibodies were measured by a standard immunoprecipitation assay with sera (n=12/group) from insulin- and ovalbumin-treated mice aged 70-105 days. […] Defective suppressor T-cell function has been postulated to shift the balance towards Th1 in IDDM (11). It seems unlikely that the reduced T-cell proliferative response to GAD could reflect ‘bystander’ suppression due to the secretion of the Th2 cytokines IL4 and IL-10 (8) by insulin aerosol-induced regulatory cells because, apart from an absence of added insulin in the cultures with GAD, responses to conA and anti-CD3 were not impaired. A direct explanation is that tile reduced response to GAD reflects the protective effect of aerosol insulin on insulitis and β-cell destruction. […]
# female NOD mice [7] = assay: Aerosol treatment and diabetes assessment (blood glucose >11 mM); assay type: in vivo, mouse; settings: aerosol for 10 consecutive days and then weekly, started at 49 days of age (insulitis well-established)
# NOD mouse = settings: oral, 1 mg twice weekly; cited from earlier work
# [8] = additive: Anti-CD3 antibody (10 μg/ml)
# [9] = additive: Concanavalin A (5 μg/ml)
# [10] = additive: Human GAD65 (20 μg/ml)
# [11] = additive: Human insulin (40 μg/ml)
# [12] = additive: Mouse insulin II B-chain (a 9-23) (40 μg/ml)
Substance,"[3H]-thymidine uptake (cpm, mean ± SD) [1, 8] [cpm]","[3H]-thymidine uptake (cpm, mean ± SD) [1, 9] [cpm]","[3H]-thymidine uptake (cpm, mean ± SD) [1, 10]","[3H]-thymidine uptake (cpm, mean ± SD) [1, 11] [cpm]","[3H]-thymidine uptake (cpm, mean ± SD) [1, 12]","[3H]-thymidine uptake (cpm, mean ± SD) ([1]; additive: None)",onset and incidence of diabetes (NOD female mice),Diabetes frequency (female NOD mice [3]),diabetes incidence at 156 days of age (median) (female NOD mice [3]) [%],diabetes incidence at 240 days of age (median) (female NOD mice [3]) [%],incidence of diabetes by 240 days of age (female NOD mice [3]) [%],IFN-γ secretion [5] [pg/mL],IL-2 secretion [5] [pg/mL],TGF-β secretion [5],IL-4 secretion [5],IL-10 secretion [5],Insulitis score (female NOD mice [6]),Precipitation of 125I-insulin radioactivity by antibodies in sera (mean precipitated ± SD) (insulin antibodies) [%],diabetes incidence at 156 days (female NOD mice [7]) [%],effectiveness on a comparative dose basis (NOD female mice),other results
Recombinant human insulin,2221 ± 533,3357 ± 812,424 ± 165^c cpm,134 ± 27,169 ± 80^b cpm,157 ± 28^a cpm,significantly delayed the onset and decreased the incidence of diabetes,2/32 (6.3%)^2,23,49,75,368 ± 71,200 ± 15,293 ± 131,36 ± 6 pg/mL,222 ± 149 pg/mL,1.2 ± 0.98^1,12.7±3.6,25,–,"systemic uptake from the naso-pharyngeal mucosa [2]: insignificant; Diabetes incidence after transfer decreased (male NOD mice; 1.4×10^5 γδ T cells from aerosol-treated mice co-injected with 2×10^7 spleen cells from diabetic mice, for at least 70 days): 50%; Diabetes incidence suppressed after adoptive transfer (male NOD mice; co-injection of splenocytes or nylon wool-non-adherent splenocytes from aerosol-treated mice with 2×10^7 diabetic spleen cells, six separate experiments): ≥ 75%; clinical complications or abnormalities at autopsy (female NOD mice [3]; NOD mice treated with aerosol or intranasal insulin): no clinical complications, or abnormalities at autopsy; side effects ([4]; 36 high-risk subjects aged 4-30): No significant side effects; mucosal irritation ([4]; human subjects): only been rare and then minor and transient; Infiltration of the salivary glands by lymphoid cells (sialitis) (female NOD mice [6]; NOD mice, aerosol treatment): unaffected"
porcine insulin [oral porcine insulin],–,–,–,–,–,–,–,–,–,–,–,–,–,–,–,–,–,–,–,–,onset and incidence of diabetes (NOD mouse): delayed the onset and reduced the incidence of diabetes
proinsulin,–,–,–,–,–,–,significantly delayed the onset and decreased the incidence of diabetes,–,–,–,–,–,–,–,–,–,–,–,–,more effective than insulin,–
"ovalbumin [control ovalbumin protein, at 4 mg/ml, delivered as aerosol]",2643 ± 1126,2960 ± 494,1381 ± 650^f cpm,197 ± 82,435 ± 240^e cpm,208 ± 29^d cpm,–,8/32 (25%),47,79,88,423 ± 31,186 ± 27,162 ± 41,not detectable,not detectable,2.6 ± 0.92,6.9±2.5,58,–,–
"proinsulin peptide 24-36 (AFVNQHLCGSHLV; pro-form; UniProt P01308 24-36, looked up, fragment) [peptide fragment of proinsulin, amino acids 24-36, applied intranasally at 1-4 mg/ml]",–,–,–,–,–,–,significantly delayed the onset and decreased the incidence of diabetes,–,–,–,–,–,–,–,–,–,–,–,–,more effective than insulin,"adoptive transfer of diabetes by splenocytes from diabetic mice (male NOD mice; whole splenocytes, and splenocytes depleted of CD8 but not CD4 T cells, from female mice given a single intranasal dose at 28 days, taken at 56 days): significantly suppressed the adoptive transfer of diabetes"
